Assay results as given in ChEMBL document CHEMBL1134943, “Synthesis and biological activity of retinoic acid receptor-alpha specific amides” (Bioorg Med Chem Lett, 2002).
Numbering of substitutions follows the chain as printed. Activity calls are given as the source filed them. The calls are words filed in the database; no cut-off is given here.

Experiments:
[1] = biological target: T1, Retinoic acid receptor beta (Homo sapiens) (UniProt P10826); assay: Percent transcriptional activation of RAR beta compared to […]; type: functional
T1 sequence (whole entry): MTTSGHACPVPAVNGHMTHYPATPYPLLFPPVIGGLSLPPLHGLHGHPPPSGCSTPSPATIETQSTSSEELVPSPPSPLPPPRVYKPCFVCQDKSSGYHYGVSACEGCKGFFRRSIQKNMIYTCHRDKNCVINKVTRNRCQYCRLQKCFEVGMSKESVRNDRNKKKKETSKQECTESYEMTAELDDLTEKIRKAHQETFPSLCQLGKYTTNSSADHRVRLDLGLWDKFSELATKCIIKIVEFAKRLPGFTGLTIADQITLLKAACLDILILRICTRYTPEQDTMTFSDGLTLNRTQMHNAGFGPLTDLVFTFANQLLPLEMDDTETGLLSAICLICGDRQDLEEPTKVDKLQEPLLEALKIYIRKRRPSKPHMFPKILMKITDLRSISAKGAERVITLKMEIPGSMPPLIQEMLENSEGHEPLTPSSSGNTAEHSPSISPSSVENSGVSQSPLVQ

[2] = biological target: T2, Retinoic acid receptor alpha (Mus musculus) (UniProt P11416); assay: Topical irritation induced by RAR alpha-selective retinoid Am-580 in mice; type: functional
T2 sequence (whole entry): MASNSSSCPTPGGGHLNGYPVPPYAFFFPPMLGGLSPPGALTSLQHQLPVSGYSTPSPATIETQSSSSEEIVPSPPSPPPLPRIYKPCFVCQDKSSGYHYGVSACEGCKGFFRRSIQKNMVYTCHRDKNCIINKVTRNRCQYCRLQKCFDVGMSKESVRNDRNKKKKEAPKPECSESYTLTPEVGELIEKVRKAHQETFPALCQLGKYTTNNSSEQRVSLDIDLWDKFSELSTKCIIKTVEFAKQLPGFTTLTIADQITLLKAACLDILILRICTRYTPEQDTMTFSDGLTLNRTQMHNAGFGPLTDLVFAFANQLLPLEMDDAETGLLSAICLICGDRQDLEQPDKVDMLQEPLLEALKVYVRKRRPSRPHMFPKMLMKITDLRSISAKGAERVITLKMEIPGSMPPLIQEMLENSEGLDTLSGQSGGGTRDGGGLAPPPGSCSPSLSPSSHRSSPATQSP

[3] = biological target: T3, Retinoic acid receptor gamma (Homo sapiens) (UniProt P13631); assay: Percent transcriptional activation of RAR gamma compared to 1 µM ATRA
T3 sequence (whole entry): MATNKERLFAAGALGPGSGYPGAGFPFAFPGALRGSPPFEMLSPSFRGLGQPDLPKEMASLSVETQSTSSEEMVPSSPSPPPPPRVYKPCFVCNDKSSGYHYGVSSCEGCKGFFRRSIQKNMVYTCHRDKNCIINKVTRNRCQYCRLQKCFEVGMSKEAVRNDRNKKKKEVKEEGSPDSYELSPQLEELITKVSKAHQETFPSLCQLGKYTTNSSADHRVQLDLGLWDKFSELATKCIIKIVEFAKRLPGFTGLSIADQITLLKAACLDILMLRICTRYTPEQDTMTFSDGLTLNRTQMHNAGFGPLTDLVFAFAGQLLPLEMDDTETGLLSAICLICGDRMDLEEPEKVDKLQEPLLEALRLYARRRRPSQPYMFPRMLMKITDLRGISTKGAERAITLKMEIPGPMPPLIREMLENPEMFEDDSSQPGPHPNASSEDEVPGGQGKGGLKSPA

[4] = biological target: T4, Retinoic acid receptor alpha (Homo sapiens, UniProt P10276); assay: Binding affinity fo retinoic acid receptor RAR alpha
T4 sequence (P10276 whole entry): T2 sequence (whole entry) with S43T, D150E, A169V, K347R, S427P, T431G, H453N, Q460H

[5] = biological target: T4, Retinoic acid receptor alpha; assay: Effective concentration for retinoic acid receptor RAR alpha transcriptional activation; type: functional
[6] = biological target: T5, Retinoic acid receptor beta (Homo sapiens, UniProt P10826); assay: Binding affinity for retinoic acid receptor RAR beta
T5 sequence (P10826 whole entry): T1 sequence (whole entry)

[7] = biological target: T5, Retinoic acid receptor beta; assay: Effective concentration for retinoic acid receptor RAR beta transcriptional activation; type: functional
[8] = biological target: T6, Retinoic acid receptor gamma (Homo sapiens, UniProt P13631); assay: Binding affinity for retinoic acid receptor RAR gamma
T6 sequence (P13631 whole entry): T3 sequence (whole entry)

[9] = biological target: T6, Retinoic acid receptor gamma; assay: Effective concentration for retinoic acid receptor RAR gamma transcriptional activation; type: functional
[10] = biological target: T3, Retinoic acid receptor gamma (Homo sapiens); settings: 1 mM
[11] = test system: SK-BR-3; assay: Inhibition of ER-negative human breast cancer cell SK-BR-3 proliferation; type: functional, cell-based
[12] = test system: SK-BR-3; assay: Percent inhibition of BrdU incorporation into SK-BR-3 cells; type: functional, Homo sapiens
[13] = test system: T47D; assay: Percent inhibition of BrdU incorporation into T-47D cells; type: functional, Homo sapiens
[14] = test system: T47D; assay: Inhibition of ER positive human breast cancer cell T-47D proliferation; type: functional, cell-based
[15] = biological target: T7, Retinoic acid receptor alpha (Homo sapiens) (UniProt P10276); assay: Percent transcriptional activation of RAR alpha compared to […]; type: functional
T7 sequence (whole entry): T2 sequence (whole entry) with S43T, D150E, A169V, K347R, S427P, T431G, H453N, Q460H

[16] = biological target: T1, Retinoic acid receptor beta (Homo sapiens); assay: Percent transcriptional activation of RAR beta compared to […]; NA indicates […]; type: functional

| SMILES | Efficacy [1] [%] | Topical irritation score(0-21) [2] | Efficacy [3] [%] | Kd [4] [nM] | EC50 [5] [nM] | Kd [6] [nM] | EC50 [7] [nM] | Kd [8] [nM] | EC50 [9] [nM] | Efficacy [10] | IC50 [11] [nM] | Efficacy [12] [%] | Efficacy [13] [%] | IC50 [14] [nM] | Efficacy [15] [%] | Efficacy [16] |
| --- | --- | --- | --- | --- | --- | --- | --- | --- | --- | --- | --- | --- | --- | --- | --- | --- |
| CC1(C)CCC(C)(C)c2cc(C(=O)Nc3ccc(C(=O)O)cc3)ccc21 | 105 | 16 | 80 | – | – | – | – | – | – | – | – | – | – | – | – | – |
| CC1(C)CCC(C)(C)c2cc(C(=O)Nc3ccc(C(=O)O)c(F)c3)ccc21 | 78 | – | 85 | 2 | 8 | 380 | 45 | 990 | 350 | – | – | – | – | – | – | – |
| CC1(C)CCC(C)(C)c2cc(C(=O)Nc3cc(F)c(C(=O)O)c(F)c3)ccc21 | 25 | – | – | 7 | 94 | 1470 | > 1000 | 5600 | – | inactive | – | – | – | – | – | – |
| CC1=C(/C=C/C(C)=C/C=C/C(C)=C/C(=O)O)C(C)(C)CCC1 [TRETINOIN] | – | – | – | – | – | – | – | – | – | – | 1.7 | 99 | 74 | 200 | – | – |
| CC1(C)CCC(C)(C)c2cc(C(=O)Nc3cc(F)c(C(=O)O)c(F)c3)c(O)cc21 | 10 | – | 10 | 3 | 112 | > 100000 | > 1000 | 5600 | > 1000 | – | – | – | – | – | – | – |
| CC1(C)CCC(C)(C)c2c1cc(C(=O)Nc1cc(F)c(C(=O)O)c(F)c1)c(O)c2Cl [NRX195183] | – | 0 | – | 3 | 200 | > 100000 | – | > 100000 | – | inactive | 11 | 93 | 57 | 1.4 | 80 | inactive |
| CC1(C)CCC(C)(C)c2c1cc(C(=O)Nc1cc(F)c(C(=O)O)c(F)c1)c(O)c2Br | – | – | – | 4 | 290 | 6400 | – | > 100000 | – | inactive | – | – | – | – | – | inactive |
